This note sets out measurements from paper PMC3210832 (Journal of Pharmaceutical Sciences, 2011).

Some results are limits rather than exact numbers.

Series [1] relates to HIV-1 in MT4 cells. In words: In vitro anti-HIV activity in MT4 cells, colorimetric XTT assay. The series is classed as cell-based. Particulars: Human immunodeficiency virus 1, MT4. In general terms: Tetrazolium assays rely on reduction of a dye to a coloured formazan, in cell work by metabolically active cells.
The nature of series [2]: Transport. Particulars: rat, pH 7.4.
The nature of series [3]: Bidirectional transport across Caco-2 cell monolayers. Particulars: human, Caco-2, pH 7.4.
For series [4], the target named is HIV-1 protease (Human immunodeficiency virus type 1 group M subtype B, UniProt P04585). In words: HIV-1 protease inhibition, fluorometric assay. The series is classed as biochemical.

What is called EC50 is the concentration that produces a half-maximal response. Read a high EC50 as lower potency in that assay. In the case of `CC(C)(C)NC(=O)[C@@H]1CN(Cc2cccnc2)CCN1C[C@@H](O)C[C@@H](Cc1ccccc1)C(=O)N[C@H]1c2ccccc2C[C@H]1O` [Indinavir, reference compound], in series [1], it took 41 nM to reach a half-maximal effect (EC50).
Usually Papp stands for a coefficient for how fast a substance crosses the barrier. Higher therefore signals fast passage. The term Papp A→B denotes how fast a substance crosses the layer from the apical side. Lower therefore signals poor permeation. In general, Papp B→A refers to how fast a substance crosses the layer from the basolateral side. What is called efflux ratio is the permeability from basolateral to apical divided by that in the opposite direction, in the common usage. As a reminder, the Ki is the dissociation constant of the complex between target and ligand, obtained from inhibition or displacement. A lower Ki goes with a stronger hold on the target. In the case of `CNC(=O)[C@@H](NC(=O)[C@](O)(Cc1ccccc1)CN(Cc1ccc(-c2ccccn2)cc1)NC(=O)[C@@H](NC(=O)OC)C(C)(C)C)C(C)(C)C` [Compound 11, methyl (S)-1-(2-((S)-2-benzyl-3-((S)-3,3-dimethyl-1-(methylamino)-1-oxobutan-2-ylamino)-2-hydroxy-3-oxopropyl)-2-(4-(pyridin-2-yl)benzyl)hydrazinyl)-3,3-dimethyl-1-oxobutan-2-ylcarbamate], in series [2], the Papp came out at 3.8 ×10⁻⁶ cm/s and the Papp at 90 min was less than 8 ×10⁻⁶ cm/s. Also, in series [3], the Papp A→B amounted to 3.4 ± 0.4 ×10⁻⁶ cm/s, the Papp B→A is 26 ± 9.1 ×10⁻⁶ cm/s and the efflux ratio is 7.6. Further, in series [1], the EC50 is greater than 10000 nM. Besides, in series [4], the Ki was found to be 23 nM.
